Like-named read-outs stand apart in the source and are kept apart here.
Columns and labels:
[1] = test system: M. tuberculosis H37Rv-GFP; experiment: microbe, parasite or virus in culture; assay type: cell-based, Mycobacterium tuberculosis; conditions: Mycobacterium tuberculosis, H37RV, Macrophage
Raw264.7 cells [2] = conditions: mouse
Raw264.7 cells [3] = experiment: Cell number (CellNb) from image analysis of the phenotypic cell-based assay
[4] = confirmation, 20 uM, read-out: QIM Confirm % Inhibition 20 uM
[5] = primary screen, 20 μM, read-out: Primary QIM % Inhibition

SMILES | inhibition at 20 µM [1, 4] [%] | inhibition at 20 µM [1, 5] [%] | Primary QIM CellNb (Raw264.7 cells [2]; 5 days, 20 μM) | Primary QIM CellNb (Raw264.7 cells [3]; primary screen, 20 μM) | also measured
COc1cccc(/C=N/NC(=O)c2ccncc2)c1O [IPK 000 043 08] | 95.1 | 87.3 | 102.7 | 255.5 | 
O=C(N/N=C/c1cccc(Br)c1)c1ccncc1 [IPK 000 043 09] | 102 | 95.8 | 100.5 | 258.5 | 
O=C(N/N=C/c1cccc(Cl)c1Cl)c1ccncc1 [IPK 000 043 10] | 98.3 | 14.3 | 92.7 | 176.8 | 
O=C(N/N=C/c1ccc(O)c([N+](=O)[O-])c1)c1ccncc1 [IPK 000 043 11] | 104 | 104 | 99.5 | 366.0 | 
O=C(N/N=C/c1cc2ccccc2[nH]1)c1ccncc1 [IPK 000 043 12] | 100 | 69.9 | 104.6 | 195.0 | 
O=C(N/N=C/c1ccc(Cl)cc1Cl)c1ccncc1 [IPK 000 043 13] | 104 | 49.2 | 101.6 | 177.8 | 
Cc1cccc(/C=N/NC(=O)c2ccncc2)c1 [IPK 000 043 26] | 102 | 109 | 102.2 | 347.3 | QIM Confirm CellNb 0.2 uM (Raw264.7 cells [2]; 5 days): 98.6; QIM Confirm CellNb 2 uM (Raw264.7 cells [2]; 5 days): 99.5; QIM Confirm CellNb 20 uM (Raw264.7 cells [2]; 5 days, 20 uM): 72.4; QIM Confirm CellNb 0.2 uM (Raw264.7 cells [3]; confirmation, 0.2 uM): 413.6; QIM Confirm CellNb 2 uM (Raw264.7 cells [3]; confirmation): 523.3; QIM Confirm CellNb 20 uM (Raw264.7 cells [3]; confirmation): 430.3
CCOc1ccccc1/C=N/NC(=O)c1ccncc1 [IPK 000 043 27] | 102 | 47.6 | 105.2 | 125.8 | 
O=C(N/N=C/c1ccc(O)cc1O)c1ccncc1 [IPK 000 043 28] | 95.9 | 94.9 | 87.1 | 326.5 | 
Cc1ccccc1/C=N/NC(=O)c1ccncc1 [IPK 000 043 29] | 100 | 111 | 105.2 | 415.5 | 
O=C(N/N=C/C=C/c1ccc([N+](=O)[O-])cc1)c1ccncc1 [IPK 000 043 30] | 102 | 107 | 100.8 | 305.0 | 
CCc1ccc(/C=N/NC(=O)c2ccncc2)cc1 [IPK 000 043 31] | 100 | 94.6 | 101.5 | 334.0 | 
CC(C)c1ccc(/C=N/NC(=O)c2ccncc2)cc1 [IPK 000 043 32] | 102 | 60.5 | 94.5 | 164.0 | 
O=C(N/N=C/c1cccs1)c1ccncc1 [IPK 000 043 33] | 104 | 83 | 94.5 | 270.8 | 
O=C(N/N=C/c1ccccc1[N+](=O)[O-])c1ccncc1 [IPK 000 043 35] | 101 | 104 | 94.4 | 245.5 | QIM Confirm CellNb 20 uM (Raw264.7 cells [3]; confirmation): 461.5
CCOc1ccc2ccccc2c1/C=N/NC(=O)c1ccncc1 [IPK 000 043 62] | 104 | 98.2 | 98.8 | 393.8 | 
Oc1ccc(Br)cc1/C=N/c1ccccc1O [IPK 000 043 83] | 31.3 | -80.9 | 17.1 | 89.0 | 
O=[N+]([O-])c1ccc(O)c(/C=N/c2ccccc2O)c1 [IPK 000 044 20] | 30.7 | -67.5 | 6.3 | 135.0 | 
Oc1ccccc1/N=C/c1cc(Br)cc(Br)c1O [IPK 000 044 41] | 29.9 | -120 | 34.0 | 126.8 | 
Oc1ccccc1/N=C/c1cc(Cl)cc(Cl)c1O [IPK 000 045 01] | 30.6 | -9.3 | 24.3 | 145.0 | 
Cc1ccc(C(=O)NC2CCCCCC2)cc1[N+](=O)[O-] [IPK 000 047 06] | 69.9 | 57.3 | 17.6 | 290.8 | 
Cc1ccc(NC(=O)c2ccc([N+](=O)[O-])cc2Cl)cc1C [IPK 000 047 15] | 85.8 | 69.7 | 61.1 | 281.8 | 

SMILES | inhibition at 20 µM [1, 4] [%] | inhibition at 20 µM [1, 5] [%] | Primary QIM CellNb (Raw264.7 cells [2]; 5 days, 20 μM) | Primary QIM CellNb (Raw264.7 cells [3]; primary screen, 20 μM) | also measured
Cc1ccc(NC(=O)c2ccc([N+](=O)[O-])cc2Cl)cc1Cl [IPK 000 047 16] | 85.1 | 69.4 | 77.9 | 280.5 | 
CCCCc1ccc(NC(=O)c2ccc([N+](=O)[O-])cc2Cl)cc1 [IPK 000 047 17] | 88.5 | 57.6 | 69.7 | 152.3 | 
CCC(C)c1ccc(NC(=O)c2ccc(Cl)c([N+](=O)[O-])c2)cc1 (centres unmarked) [IPK 000 048 71] | 70 | 62.1 | 22.6 | 56.5 | 
O=C(Nc1ccc(Cl)c(Cl)c1)c1ccc([N+](=O)[O-])cc1Cl [IPK 000 048 99] | 73.5 | 76.8 | 40.3 | 217.8 | 
O=C(Nc1ccc(Cl)cc1[N+](=O)[O-])c1ccc([N+](=O)[O-])cc1Cl [IPK 000 049 00] |  |  |  |  | inhibition at 20 µM ([1]; read-out: Primary QIM % Inhibition): 32.1%; inhibition at 20 µM ([1]; read-out: QIM Confirm % Inhibition 20 uM): 74.2%; Primary QIM CellNb (Raw264.7 cells [2]): 72.2; Primary QIM CellNb (Raw264.7 cells [3]): 108.0
O=C(Nc1cc(Cl)cc(Cl)c1)c1ccc([N+](=O)[O-])cc1Cl [IPK 000 049 03] | 48.6 | 62.6 | 56.0 | 205.3 | 
O=C(Nc1cc(Cl)cc(Cl)c1)c1cc([N+](=O)[O-])ccc1Cl [IPK 000 049 20] | 88.6 | 71.5 | 54.8 | 155.5 | 
O=C(Nc1cccc(C(F)(F)F)c1)Nc1ccc(Cl)c(Cl)c1 [IPK 000 052 50] | 76.4 | 45 | 10.8 | 44.0 | 
O=[N+]([O-])c1cc2c(cc1/C=N/c1ccc(S(=O)(=O)Nc3nccs3)cc1)OCO2 [IPK 000 057 78] | 35.5 | -10.9 | 12.6 | 177.0 | 
O=[N+]([O-])c1cc(/C=N/c2ccc(S(=O)(=O)NC3NC=CS3)cc2)c2c(c1)COCO2 (centres unmarked) [IPK 000 057 92] | 27.2 | -30.7 | 23.0 | 165.3 | 
COc1cc(CN(C)NC(=O)c2ccccn2)ccc1OC(=O)c1cccs1 [IPK 000 058 20] | 44.3 | 98.1 | 66.6 | 344.8 | 
O=C(N/N=C/c1ccc[nH]1)c1ccccn1 [IPK 000 058 21] | 56 | 90.9 | 75.7 | 452.5 | 
O=C(N/N=C/c1cc2c(cc1[N+](=O)[O-])OCO2)c1ccncc1 [IPK 000 058 30] | 70.8 | 95.5 | 98.3 | 315.8 | 
Cc1nc2c(o1)NC(N)=C(C#N)C2c1c[nH]nc1C (centres unmarked) [IPK 000 065 03] | 73.2 | 68.2 | 1.1 | 197.8 | 
CC(NC(=O)c1cccc(Cl)c1)c1ccccc1 (centres unmarked) [IPK 000 067 51] | 73.2 | 75.2 | 17.9 | 142.3 | 
CCCCN(CCCC)C(=O)c1ccc(C(C)(C)C)cc1 [IPK 000 067 60] | 46.6 | 63.4 | 25.8 | 164.3 | QIM Confirm CellNb 2 uM (Raw264.7 cells [2]; 5 days): 99.7; QIM Confirm CellNb 2 uM (Raw264.7 cells [3]; confirmation): 179.1
CC(NC(=O)c1ccc(C(C)(C)C)cc1)c1ccccc1 (centres unmarked) [IPK 000 067 61] | 68.5 | 84.3 | 28.2 | 182.0 | 
c1cc2c(cc1C13CC4CC(CC(C4)C1)C3)c1c3n2CCNC3CCC1 (centres unmarked) [IPK 000 068 87] | 71.4 | 73.1 | −12.0 | 156.8 | 
C=CCn1c(Cc2ccccc2)nc2c(cnn2-c2ccccc2)c1=O [IPK 000 073 11] | 56.1 | 49.1 | −10.5 | 147.8 | QIM Confirm CellNb 0.2 uM (Raw264.7 cells [2]; 5 days): 67.2
O=C(Nc1sc2c(c1C(=O)Nc1ccccc1)CCC2)c1ccccc1Br [IPK 000 073 29] | 86.6 | 78.6 | 55.1 | 230.5 | 
O=C(Nc1sc2c(c1C(=O)Nc1ccccc1)CCC2)c1ccccc1Cl [IPK 000 073 68] | 92.6 | 88.2 | 74.7 | 202.3 | 
